From patent US10294248B2, “Beta-lactamase inhibitors” (VenatoRx Pharmaceuticals, Inc., priority 2013, dated 2019)

Key:
[1] = test system: E. cloacae 144200 expressing Class C P99 AmpC; assay: Broth microdilution MIC, E. cloacae 144200 p99 AmpC; assay type: cell-based; conditions: fixed 4 μg/mL ceftazidime; CAMHB, 16-20 hours at 37° C.
Source text: (§1) To determine the ability of test compounds to potentiate the inhibition of the growth of bacterial strains that produce beta-lactamase enzymes, classic cell based broth microdilution MIC assays were employed. Six bacteria strains producing beta-lactamase enzymes were used: E. coli expressing the Class A Extended Spectrum Beta-Lactamase (ESBL) CTX-M-15, E. cloacae expressing the Class C P99, K. pneumoniae expressing the Class A carbapenemase KPC-3, P. aeruginosa expressing the Class B carbapenemase VIM-2, K. pneumoniae expressing the class A carbapenemase KPC-2 and the class B carbapenemase VIM-4, and S. aureus producing the Class A penicillinase PC-1. The assay was conducted in Cation Adjusted Mueller Hinton Broth (CAMHB, BD #212322, BD Diagnostic Systems, Sparks, Md.). Bacteria strains were grown for 3-5 hours in CAMBH broth. Test compounds (Examples 1-30) were added to a microtiter plate in 2-fold serial dilutions in CAMHB in a final concentration range of 32 μg/mL to 0.25 μg/ml. An overlay of CAMHB containing a Beta-lactam was added to the compounds at a final static concentration of 4 μg/ml. […] In addition to the titration of test compounds the MICs of a panel of control beta-lactams is also tested to ensure the strains are behaving consistently from test to test. Once the test compound and antibiotics are added the plates can be inoculated according to CLSI broth microdilution method. After inoculation the plates are incubated for 16-20 hours at 37° C. then the Minimal Inhibitory Concentration (MIC) of the test compound is determined visually.
(§2) Using the methodology described above, examples of the current invention were evaluated for their ability to inhibit the growth of β-lactamase-producing bacteria in the presence of a β-lactam antibiotic.
(§3) Using the methodology described above in EXAMPLE III, exemplary compounds for Formula I or Formula Ia were evaluated for their ability to inhibit the growth of β-lactamase producing bacteria in the presence of a β-lactam antibiotic.

[2] = test system: E. coli ESBL4 expressing CTX-M-15; assay: Broth microdilution MIC, E. coli ESBL4 CTX-M-15; assay type: cell-based; conditions: fixed 4 μg/mL ceftazidime; CAMHB, 16-20 hours at 37° C.
Source text: as §1, §2, §3

[3] = target: T1, VIM-2 metallo-β-lactamase (Class B) (Pseudomonas aeruginosa, UniProt Q9K2N0); assay: β-Lactamase inhibition, VIM-2; assay type: biochemical; conditions: nitrocefin 100 μM, 486 nm; 15 min preincubation at 37° C., PBS pH 7.4
T1 construct: made in house; host or cells: E. coli BL21(DE3)
Method: For Vim-2 metallo β-lactamase, the procedure was identical with the following exceptions, first the protein was not pH adjusted to pH 5 with 50 mM sodium acetate, second, the chromatography step was changed to a 5 ml Q sepharose anion exchange column pre-equilibrated with 50 mM Hepes pH 7.5, and elution of the protein was achieved by a linear gradient of NaCl (0-600 mM). Finally, the VIM-2 purification required a second run (3rd step) on the Q sepharose anion exchange column to achieve acceptable purity (>90%).
(§4) An equal volume of diluted enzyme stock was added, and the plates were incubated at 37° C. for 15 min. Nitrocefin was used as substrate for p99 AmpC, VIM-2 and OXA-1 and dispensed into each well at a final concentration of 100 μM. Absorbance at 486 nm was immediately monitored for 10 min using a Biotek Powerwave XS2 microplate spectrophotometer using the GEN5 software package (Biotek Instruments, Winooski Vt.). In an analogous fashion, imipenem was used as substrate for Kpc-2 and Cefotaxime was used for SHV-5, while changes in absorbance upon hydrolysis of the β-lactam ring were monitored at 300 nm and 260 nm respectively in UV-transparent 96-well microtiter assay plates. Maximum rates of hydrolysis were compared to those in control wells (without inhibitors), and percentages of enzyme inhibition were calculated for each concentration of inhibitor. The concentration of inhibitor needed to reduce the initial rate of hydrolysis of substrate by 50% (IC50) was calculated as the residual activity of β-lactamase at 486 nm using GraFit version 7 kinetics software package (Erithacus Software, Surrey, UK).
(§5) Using the methodology described above, examples of the current invention were evaluated for their ability to inhibit β-lactamase enzymes from all four Ambler classifications (A through D). […] NT=Not tested.

[4] = test system: P. aeruginosa Ps296 expressing VIM-2; assay: Broth microdilution MIC, P. aeruginosa Ps296 VIM-2; assay type: cell-based; conditions: fixed 4 μg/mL meropenem; CAMHB, 16-20 hours at 37° C.
Source text: as §1, §2, §3

[5] = target: T2, KPC-2 β-lactamase (Class A carbapenemase) (Klebsiella pneumoniae, UniProt Q9F663); assay: β-Lactamase inhibition, KPC-2; assay type: biochemical; conditions: imipenem substrate, 300 nm; 15 min preincubation at 37° C., PBS pH 7.4
T2 construct: made in house; host or cells: E. coli BL21(DE3)
Method: (§6) For SHV-5, Kpc-2, p99AmpC and OXA-1 β-lactamases, E. coli BL21(DE3) bacterial cells carrying expression plasmids (expressed as native untagged proteins) for the individual β-lactamases were grown in 1 L of Superbroth (Teknova Inc. Hollister, Calif.) supplemented with 100 μg/ml kanamycin selection and 1×5052 (0.5% glycerol, 0.05% glucose and 0.2% α-lactose) at 35° C. for 18-20 hours. Cells were harvested by centrifugation (4,000×g, 4° C., 20 min), resuspended in 50 ml of 10 mM HEPES pH 7.5 ( 1/20 of the initial volume). The cells were lysed by sonication (5 pulses of 45 seconds) at 45 W on ice. The lysates were clarified by centrifugation at 10,000×g for 40 minutes at 4° C. Samples were diluted 5-fold in 50 mM sodium acetate pH 5.0, stored overnight at 4° C., after which they were centrifuged at 10,000×g for 30 minutes to clarify, and filtered through 0.45 μm filters. The samples were loaded onto a 5 ml Capto S sepharose cation exchange column (GE Healthcare) pre-equilibrated with 50 mM sodium acetate pH 5.0. The column was washed with 5 column volumes of 50 mM sodium acetate pH 5.0 to wash out unbound protein and a linear gradient of NaCl (0 to 500 mM) was used to elute the protein (over 16 CV) from the column. Fractions were assayed for β-lactamase activity using Centa (Calbiochem, Gibbstown, N.J.) or Nitrocefin (EMD Millipore chemicals, Darmstadt, Germany) as a reporter β-lactamase substrate for activity in the isolated fractions. Active fractions were pooled, concentrated and further purified by gel filtration chromatography on a Superdex 75 prep grade gel filtration column (GE Healthcare, Piscataway, N.J.) pre-equilibrated in 50 mM Hepes pH 7.5, 150 mM NaCl. Active fractions were pooled concentrated, quantitated by BCA protein determination (Thermo Scientific, Rockford, Ill.), dialyzed into PBS and frozen at −80° C. in 20% glycerol until use.
as §4, §5

[6] = target: T3, p99 AmpC β-lactamase (Class C) (Enterobacter cloacae, UniProt P05364); assay: β-Lactamase inhibition, p99 AmpC; assay type: biochemical
T3 construct: made in house; host or cells: E. coli BL21(DE3)
Method: as §6, §4, §5

[7] = test system: K. pneumoniae 156319 expressing KPC-3; assay: Broth microdilution MIC, K. pneumoniae 156319 KPC-3; assay type: cell-based; conditions: fixed 4 μg/mL meropenem; CAMHB, 16-20 hours at 37° C.
Source text: as §1, §2, §3

[8] = target: T4, SHV-5 β-lactamase (Class A ESBL) (Klebsiella pneumoniae, UniProt P0A3M1); assay: β-Lactamase inhibition, SHV-5; assay type: biochemical
T4 construct: made in house; host or cells: E. coli BL21(DE3)
Method: as §6, §4, §5

[9] = test system: S. aureus MSSA-7 producing penicillinase PC-1; assay: Broth microdilution MIC, S. aureus MSSA-7 PC-1; assay type: cell-based; conditions: fixed 4 μg/mL piperacillin; CAMHB, 16-20 hours at 37° C.
Source text: as §1, §2, §3

[10] = test system: K. pneumoniae A-1797 expressing KPC-2 and VIM-4; assay: Broth microdilution MIC, K. pneumoniae A-1797 KPC-2/VIM-4; assay type: cell-based; conditions: fixed 4 μg/mL meropenem; CAMHB, 16-20 hours at 37° C.
Source text: as §1, §2, §3

[11] = target: T5, OXA-1 β-lactamase (Class D oxacillinase) (Escherichia coli, UniProt P13661); assay: β-Lactamase inhibition, OXA-1; assay type: biochemical; conditions: nitrocefin 100 μM, 486 nm; 15 min preincubation at 37° C., PBS pH 7.4
T5 construct: made in house; host or cells: E. coli BL21(DE3)
Method: as §6, §4, §5

T3 sequence (P05364 21-381): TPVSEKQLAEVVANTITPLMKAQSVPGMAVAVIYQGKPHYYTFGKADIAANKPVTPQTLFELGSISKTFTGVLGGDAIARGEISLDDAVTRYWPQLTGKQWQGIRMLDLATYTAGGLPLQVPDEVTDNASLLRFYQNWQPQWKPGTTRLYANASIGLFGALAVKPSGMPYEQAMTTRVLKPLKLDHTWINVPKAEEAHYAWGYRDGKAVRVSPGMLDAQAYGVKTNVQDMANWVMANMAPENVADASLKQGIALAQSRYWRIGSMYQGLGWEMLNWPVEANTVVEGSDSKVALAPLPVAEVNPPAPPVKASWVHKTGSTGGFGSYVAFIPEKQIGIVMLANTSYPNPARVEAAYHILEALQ
T5 sequence (P13661 26-276): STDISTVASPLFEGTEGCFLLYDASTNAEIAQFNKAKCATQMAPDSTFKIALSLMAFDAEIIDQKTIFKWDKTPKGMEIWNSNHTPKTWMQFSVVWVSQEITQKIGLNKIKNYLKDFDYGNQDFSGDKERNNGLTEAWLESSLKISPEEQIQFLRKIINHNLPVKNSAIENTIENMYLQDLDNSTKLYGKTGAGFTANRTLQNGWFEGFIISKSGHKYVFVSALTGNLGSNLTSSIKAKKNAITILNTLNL
T2 sequence (Q9F663 25-293, looked up): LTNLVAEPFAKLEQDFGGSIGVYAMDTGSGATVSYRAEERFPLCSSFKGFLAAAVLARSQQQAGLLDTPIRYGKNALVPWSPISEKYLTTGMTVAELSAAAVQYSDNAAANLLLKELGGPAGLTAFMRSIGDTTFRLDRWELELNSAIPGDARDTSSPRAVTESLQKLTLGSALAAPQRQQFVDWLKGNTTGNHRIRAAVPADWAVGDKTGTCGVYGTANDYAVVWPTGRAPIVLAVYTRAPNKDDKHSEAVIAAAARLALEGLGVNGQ
T4 sequence (P0A3M1 22-286): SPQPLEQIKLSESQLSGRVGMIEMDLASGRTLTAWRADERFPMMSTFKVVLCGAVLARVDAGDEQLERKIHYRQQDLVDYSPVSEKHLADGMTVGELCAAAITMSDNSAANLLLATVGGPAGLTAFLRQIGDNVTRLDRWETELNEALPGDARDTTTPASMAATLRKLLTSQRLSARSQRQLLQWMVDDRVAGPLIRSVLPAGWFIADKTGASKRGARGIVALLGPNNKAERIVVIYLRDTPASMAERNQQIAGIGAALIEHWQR

O=C(CN1CCN(c2ccccn2)CC1)N[C@H]1Cc2cccc(C(=O)O)c2OB1O [Example 2, 2-Hydroxy-3-[2-(4-pyridin-2-yl-piperazin-1-yl)-acetylamino]-3,4-dihydro-2H-benzo[e][1,2]oxaborinine-8-carboxylic acid]
MIC of example compound in presence of fixed β-lactam: Fixed CAZ, E. cl. 144200 p99 AmpC [1]: C (the MIC in the presence of <4 μg/mL of a β-lactamase inhibitor)
MIC of example compound in presence of fixed β-lactam: Fixed CAZ, E. coli ESBL4 CTX-M-15 [2]: C (the MIC in the presence of <4 μg/mL of a β-lactamase inhibitor)
IC50 [3]: 1000 to 10000 nM
MIC of example compound in presence of fixed β-lactam: Fixed Mero, P. aerug. Ps296 VIM-2 [4]: A (an MIC of the fixed β-lactam antibiotic in the presence of >32 μg/mL of a β-lactamase inhibitor)
IC50 [5]: 100 to 1000 nM
IC50 [6]: < 100 nM
MIC of example compound in presence of fixed β-lactam: Fixed Mero, K. P. 156319 KPC-3 [7]: B (the MIC in the presence of between 8 and 32 μg/mL of a β-lactamase inhibitor)
IC50 [8]: < 100 nM
MIC of example compound in presence of fixed β-lactam: Fixed Pip, S. aureus MSSA-7 PC-1 [9]: C (the MIC in the presence of <4 μg/mL of a β-lactamase inhibitor)
MIC of example compound in presence of fixed β-lactam: Fixed Mero, K. P. A-1797 KPC-2 VIM-4 [10]: A (an MIC of the fixed β-lactam antibiotic in the presence of >32 μg/mL of a β-lactamase inhibitor)
IC50 [11]: 100 to 1000 nM

CN(C)CCN1CCN(CC(=O)N[C@H]2Cc3cccc(C(=O)O)c3OB2O)CC1 [Example 3, 3-{2-[4-(2-Dimethylamino-ethyl)-piperazin-1-yl]-acetylamino}-2-hydroxy-3,4-dihydro-2H-benzo[e][1,2]oxaborinine-8-carboxylic acid]
MIC of example compound in presence of fixed β-lactam: Fixed CAZ, E. cl. 144200 p99 AmpC [1]: C (the MIC in the presence of <4 μg/mL of a β-lactamase inhibitor)
MIC of example compound in presence of fixed β-lactam: Fixed CAZ, E. coli ESBL4 CTX-M-15 [2]: C (the MIC in the presence of <4 μg/mL of a β-lactamase inhibitor)
IC50 [3]: 1000 to 10000 nM
MIC of example compound in presence of fixed β-lactam: Fixed Mero, P. aerug. Ps296 VIM-2 [4]: C (the MIC in the presence of <4 μg/mL of a β-lactamase inhibitor)
IC50 [5]: < 100 nM
IC50 [6]: < 100 nM
MIC of example compound in presence of fixed β-lactam: Fixed Mero, K. P. 156319 KPC-3 [7]: C (the MIC in the presence of <4 μg/mL of a β-lactamase inhibitor)
IC50 [8]: < 100 nM
MIC of example compound in presence of fixed β-lactam: Fixed Pip, S. aureus MSSA-7 PC-1 [9]: C (the MIC in the presence of <4 μg/mL of a β-lactamase inhibitor)
MIC of example compound in presence of fixed β-lactam: Fixed Mero, K. P. A-1797 KPC-2 VIM-4 [10]: B (the MIC in the presence of between 8 and 32 μg/mL of a β-lactamase inhibitor)
IC50 [11]: 100 to 1000 nM

O=C(CN1CCNCC1)N[C@H]1Cc2cccc(C(=O)O)c2OB1O [Example 4, 2-Hydroxy-3-(2-piperazin-1-yl-acetylamino)-3,4-dihydro-2H-benzo[e][1,2]oxaborinine-8-carboxylic acid]
MIC of example compound in presence of fixed β-lactam: Fixed CAZ, E. cl. 144200 p99 AmpC [1]: C (the MIC in the presence of <4 μg/mL of a β-lactamase inhibitor)
MIC of example compound in presence of fixed β-lactam: Fixed CAZ, E. coli ESBL4 CTX-M-15 [2]: C (the MIC in the presence of <4 μg/mL of a β-lactamase inhibitor)
IC50 [3]: 1000 to 10000 nM
MIC of example compound in presence of fixed β-lactam: Fixed Mero, P. aerug. Ps296 VIM-2 [4]: B (the MIC in the presence of between 8 and 32 μg/mL of a β-lactamase inhibitor)
IC50 [5]: < 100 nM
IC50 [6]: < 100 nM
MIC of example compound in presence of fixed β-lactam: Fixed Mero, K. P. 156319 KPC-3 [7]: C (the MIC in the presence of <4 μg/mL of a β-lactamase inhibitor)
IC50 [8]: < 100 nM
MIC of example compound in presence of fixed β-lactam: Fixed Pip, S. aureus MSSA-7 PC-1 [9]: C (the MIC in the presence of <4 μg/mL of a β-lactamase inhibitor)
MIC of example compound in presence of fixed β-lactam: Fixed Mero, K. P. A-1797 KPC-2 VIM-4 [10]: B (the MIC in the presence of between 8 and 32 μg/mL of a β-lactamase inhibitor)
IC50 [11]: 100 to 1000 nM

NCC1CCN(CC(=O)N[C@H]2Cc3cccc(C(=O)O)c3OB2O)CC1 [Example 5, 3-[2-(4-Aminomethyl-piperidin-1-yl)-acetylamino]-2-hydroxy-3,4-dihydro-2H-benzo[e][1,2]oxaborinine-8-carboxylic acid]
MIC of example compound in presence of fixed β-lactam: Fixed CAZ, E. cl. 144200 p99 AmpC [1]: C (the MIC in the presence of <4 μg/mL of a β-lactamase inhibitor)
MIC of example compound in presence of fixed β-lactam: Fixed CAZ, E. coli ESBL4 CTX-M-15 [2]: C (the MIC in the presence of <4 μg/mL of a β-lactamase inhibitor)
IC50 [3]: 100 to 1000 nM
MIC of example compound in presence of fixed β-lactam: Fixed Mero, P. aerug. Ps296 VIM-2 [4]: B (the MIC in the presence of between 8 and 32 μg/mL of a β-lactamase inhibitor)
IC50 [5]: < 100 nM
IC50 [6]: < 100 nM
MIC of example compound in presence of fixed β-lactam: Fixed Mero, K. P. 156319 KPC-3 [7]: C (the MIC in the presence of <4 μg/mL of a β-lactamase inhibitor)
IC50 [8]: 1000 to 10000 nM
MIC of example compound in presence of fixed β-lactam: Fixed Pip, S. aureus MSSA-7 PC-1 [9]: B (the MIC in the presence of between 8 and 32 μg/mL of a β-lactamase inhibitor)
MIC of example compound in presence of fixed β-lactam: Fixed Mero, K. P. A-1797 KPC-2 VIM-4 [10]: C (the MIC in the presence of <4 μg/mL of a β-lactamase inhibitor)
IC50 [11]: < 100 nM
